Results from patent US11389460B2, “Methods and compositions for treating endometrial cancer” (City of Hope, priority 2017, dated 2022).
Where two headings read alike, the source gives them in different places.

Assays:
[1] = tested on: cell survival molecules and cell cycle molecules (caspase 3, PARP, BCL-2, BCL-xl, cyclin D1, cyclin B1, CDK4); test: Western blot of cell survival and cell cycle molecules in HEC-1A cells; type: cell-based, Human; conditions: 24 h, single agents at various concentrations, combination 75 μM each
Method: (§1) Western blot analysis. Western blots were performed as described previously^55,56 Cells were grown in complete medium overnight and treated with DMSO or drugs at various concentrations for 24 hrs. Cells were washed in cold PBS and lysed in RIPA lysis buffer (Thermo Scientific) containing Halt protease and phosphatase inhibitors (Thermo Scientific). Proteins were quantified using BCA protein assay reagent (Thermo Scientific). Equal amounts of protein were separated by SDS-polyacrylamide gel electrophoresis, transferred to polyvinylidene fluoride membranes and incubated with total and phosphorylated protein-specific antibodies. Binding of the primary antibody was detected using a horseradish peroxidase (HRP)-conjugated secondary antibody and chemiluminescent substrates (Thermo Scientific).

[2] = tested on: p-STAT3, p-AKT, p-ERK and ER-α; test: Western blot of cell signaling molecules in HEC-1A cells; type: cell-based, Human; conditions: 24 h, single agents at various concentrations, combination 75 μM each
Method: as §1

HEC-1A xenograft = HEC-1A xenograft mouse model; type: in vivo, nude mice; conditions: oral gavage daily, 5 weeks; Pterostilbene 30 mg/kg, megestrol acetate 10 mg/kg, or both; versus vehicle
Method: Animal models. All animal studies were carried out under protocols approved by the Institutional Animal Care and Use Committee (IACUC) at City of Hope in accordance with all applicable federal, state, and local requirements and institutional guidelines. HEC-1A cells (2×10^6 in 100 μl) were inoculated subcutaneously into the right flank of 6- to 8-week-old female nude mice. Once the tumors were palpable, animals were randomized into groups of 10 to achieve an equal distribution of tumor sizes in all treatment groups. Mice were then treated by oral gavage daily with vehicle, Pterostilbene (30 mg/kg), megestrol acetate (10 mg/kg), or a combination of both agents. The doses for these two drugs were chosen based on previously published studies. Tumor volumes were assessed using calipers twice a week. Tumor volumes were determined using the formula (Width)^2×Length×0.52. Body weight was monitored weekly as an indicator of drug-induced toxicity and overall health of the mice.
Statistical analysis. Data are presented as mean±S.D. Student's t-test was used to compare the means of two groups. All the experiments were repeated 2 to 4 times. P<0.05 was considered statistically significant.

[3] = tested on: advanced stage/recurrent endometrial cancer; conditions: advanced stage / metastatic and recurrent endometrial cancer patients, cited from earlier work
ECC-1 cells = test: Cell viability assay (MTS / acid phosphatase), combination index by Chou-Talalay; type: cell-based; conditions: Homo sapiens, ECC-1, read-out: IC50 (concentration for 50% growth inhibition), pterostilbene alone, 48 h, one range printed for both cell lines
Method: (§2) Cell Culture. Human endometrial cancer cell lines HEC-1A and ECC-1 cells were from American Type Culture Collection (Rockville, Md.). […] All cells were grown in 5% (v/v) CO2 at 37° C.
(§3) Cell viability assays. Cells (4000 per well) were plated in 96-well plate format in 100 μl growth medium. Cells were treated with DMSO or drugs the next day at the indicated concentrations and incubated for an additional 2-3 days. Viable cells were determined either by the MTS assay (Promega, Madison, Wis., USA) or the acid phosphatase assay^53,54. For the MTS assay, 25 μl MTS solution was added directly into each well according to the manufacturer's instructions. For the acid phosphatase assay, all the media was removed and p-nitrophenyl phosphate substrate (10 mM 100 μl) was added into each well and incubated at 37° C. for 45 mins. […] The IC50 was determined using the Calcusyn software (Biosoft, Ferguson, Mo.).
(§4) Determination of combination index (CI). The combination index (CI) was determined using the Chou-Talalay method^37 using the Calcusyn software (Biosoft, MO).

HEC-1A cells = test: as above; type: cell-based; conditions: Homo sapiens, read-out: IC50 (concentration for 50% growth inhibition), pterostilbene alone, 48 h, one range printed for both cell lines
Method: as §2, §3, §4

[4] = recent clinical trial; cited from earlier work
[5] = compared to Resveratrol; cited from earlier work

Compound	Cleavage of caspase 3 [1]	Expression of BCL-2 and BCL-xl [1]	Expression of cyclin D1, cyclin B1 and CDK4 [1]	ER expression [2]	Expression of p-ERK1/2 [2]	Expression of p-STAT3 and p-AKT [2]	Tumor growth reduction (tumor volume and tumor weight) (HEC-1A xenograft)	Response rate [3]	Response rate ([3]; listed as MA)	IC50 (ECC-1 cells) [µM]	IC50 (HEC-1A cells) [µM]	Dose generally safe for use in humans [4]	Bioavailability [5]
megestrol acetate [reference compound]	little effect	little effect	little impact	did not significantly alter	did not significantly alter	did not significantly alter	non-significant	20-30%	25-30%	–	–	–	–
COc1cc(/C=C/c2ccc(O)cc2)cc(OC)c1 [pterostilbene]	increased cleavage	decrease	inhibited	slightly decreased	no significant effect	no significant effect	non-significant	–	–	72 to 78	72 to 78	up to 250 mg/day	superior bioavailability as compared to Resveratrol
